Assay results: patent publication US5849536A, “Cloning and production of human von willebrand factor GPIb binding domain polypeptides and methods of using same” (Bio-Technology General Corp., priority 1994, dated 1998)

Tested on: rat platelet rich plasma (PRP)
Assay: vWF-dependent platelet aggregation assay in rat platelet rich plasma
Assay type: cell-based
Details: ristocetin up to 5.0 mg/ml, no additional agent
Description: This is a standardized von Willebrand Factor (vWF)-dependent aggregation assay using human or rat platelet rich plasma (PRP). The addition of various concentrations of unfractionated Bothrops jararaca venom (BJV), which includes botrocetin and an additional thrombin-like component, or ristocetin results in an aggregatory response in the absence of any additional agent. Using ristocetin (1.5 mg/ml) as the agonist 43 μg/ml VCL abolished the aggregation of human PRP.

ristocetin
aggregation of rat PRP induced by the agonist: did not cause measurable aggregation
